“Also recorded” adds a separate entry of the source.
Legend:
[1] = tested on: human recombinant GST-α10 I domain; test: Solid-phase binding assay (SPBA) of wild-type α10 I domain; conditions: short THPs, 2 mM Mg^2 +, 1 h, Fig. 4A
Protocol: The α10 I domain was applied to the collagen II and III Toolkits in the presence or absence of Mg^2 +, and was detected using anti-GST, as described in Experimental: data are shown in Fig. 1. The background response is indicated by wells coated with the control peptide, GPP10 (corresponding to the host sequence), or BSA.
(§1) I domain adhesion was determined colorimetrically, as described, here termed solid phase binding assay (SPBA). Peptides were coated at 10 μg/ml for 1 h at 22 °C on Immulon-2 HB 96-well plates (Thermo Life Sciences, Basingstoke, UK), and blocked for 1 h with 200 μl of TBS containing 50 mg/ml bovine serum albumin. Wells were washed four times with 200 μl of the adhesion buffer (TBS with 1 mg/ml bovine serum albumin) before adding 100 μl of adhesion buffer containing 10 μg/ml of recombinant GST I domains in the presence of either 2 mM MgCl2 or EDTA for 1 h at room temperature. Wells were washed five times with 200 μl of adhesion buffer containing MgCl2 or EDTA, before adding 100 μl of adhesion buffer containing the anti-GST-HRP conjugate at 1:10,000 dilution for 1 h at room temperature. After washing, colour was developed using an ImmunoPure TMB Substrate Kit (Pierce) according to the manufacturer's instructions.

[2] = tested on: collagen-binding integrins; set-up: method as in 3 sources, ref [7], [8] = [7]; PMID 10778855; doi:10.1016/S0092-8674(00)80622-4; 7 Emsley J. Knight C.G. Farndale R.W. Barnes M.J. Liddington R.C. Structural basis of collagen recognition by integrin alpha2beta1 Cell 101 1 2000 47 56 10778855 10.1016/S0092-8674(00)80622-4 || [8]; PMID 16326707; doi:10.1074/jbc.M509818200; 8 Raynal N. Hamaia S.W. Siljander P.R. Maddox B. Peachey A.R. Fernandez R. Foley L.J. Slatter D.A. Jarvis G.E. Farndale R.W. Use of synthetic peptides to locate novel integrin alpha2beta1-binding moti ||| ref [8], [10] = [8]; PMID 16326707; doi:10.1074/jbc.M509818200; 8 Raynal N. Hamaia S.W. Siljander P.R. Maddox B. Peachey A.R. Fernandez R. Foley L.J. Slatter D.A. Jarvis G.E. Farndale R.W. Use of synthetic peptides to locate novel integrin alpha2beta1-binding moti || [10]; PMID 16043429; doi:10.1074/jbc.M502431200; 10 Kim J.K. Xu Y. Xu X. Keene D.R. Gurusiddappa S. Liang X. Wary K.K. Hook M. A novel binding site in collagen type III for the integrins, alpha 1beta 1 and alpha 2beta 1 J. Biol. Chem. 280 2005 32512 ||| ref [11] = [11]; PMID 10986291; doi:10.1074/jbc.M007668200; 11 Xu Y. Gurusiddappa S. Rich R.L. Owens R.T. Keene D.R. Mayne R. Hook A. Hook M. Multiple binding sites in collagen type I for the integrins α1β1 and α2β1 J. Biol. Chem. 275 2000 38981 38989 10986291; conditions: cited from earlier work
Description: Many related motifs have now been identified using the Collagen Toolkits developed in this laboratory for the purpose. These are libraries of overlapping peptides of 27 amino acids of collagen primary sequence (guest sequence), flanked ...

C2C12-α11β1 cells = test: xCELLigence real-time adhesion of C2C12-α11β1 cells; format: cell-based, mouse; conditions: up to 1 h, compared to GFOGER, Fig. 6D
α10β1 = test: Overall recognition by α10β1 (I domain and C2C12-α10β1 cells, summary); conditions: abstract and discussion; I domain and/or C2C12-α10β1 cells
Protocol: as §1
The mouse myoblast cell line, C2C12, (control and transfectants, C2C12-α1β1, C2C12-α2β1, C2C12-α10β1 or C2C12-α11β1) was maintained in RPMI medium containing 10% fetal bovine serum, 2 mM glutamine, 100 IU/ml penicillin, 100 μg/ml streptomycin, and 2.5 μg/ml amphotericin. Cells were harvested by centrifugation, washed, and suspended at 0.5 × 10^6/ml in Tris-buffered saline supplemented with 5.5 mM glucose and either 2 mM EDTA or 2 mM MgCl2. SPBA was performed as follows: 100 μl of the cell suspension was added to peptide-coated wells [42] at 20 °C for 60 min. Cell adhesion was determined colorimetrically after lysis, using a lactate dehydrogenase (LDH)-based cell detection kit (Roche Diagnostics) according to the supplier's instructions.
(§2) To quantitate C2C12-α10β1 binding to collagen peptides, we used the impedance-based xCELLigence system (Acea) that allows label-free, dynamic monitoring of cell adhesion in real-time. The assay system expresses the adhesion-dependent rise in well impedance in units of cell index (CI), defined as (Rn − Rb) / 15; where Rn is the electrical impedance of each cell-containing well and Rb is the background impedance of the well with medium alone

C2C12-α2β1 cells = test: xCELLigence real-time adhesion of C2C12-α2β1 cells; format: cell-based, mouse; conditions: up to 1 h, compared to GFOGER, Fig. 6B
C2C12-α10β1 cells = test: xCELLigence real-time adhesion of C2C12-α10β1 cells; format: cell-based, mouse; conditions: up to 1 h, compared with GPP10 negative control, Fig. 6C
Protocol: Fig. 3 Binding of α10β1-transfected C2C12 cells to collagens and selected Toolkit peptides. Peptides or collagens were coated on ePlates as described, then cells were added in the presence of 2 mM Mg^2 + or EDTA, and Cell Index value was collected over 1 h. […] B: time courses are shown of adhesion to selected Toolkit peptides or GPP-10.
as §2
Briefly, C2C12 cells were seeded at 2.5 × 10^4 cells/well in an E-plate (Roche Applied Science) pre-coated with peptides as for SPBA, and CI was measured for up to 2 h.

C2C12-α1β1 cells = test: xCELLigence real-time adhesion of C2C12-α1β1 cells; format: cell-based, mouse; conditions: up to 1 h, compared to GFOGER, Fig. 6A

Row | Substance | Binding of α10 I domain to short triple-helical peptides [1] | Ligand of collagen-binding integrins, highest affinity motif ([2]; in collagens I and II, ref [7], [8]) | Adhesion of C2C12-α11β1 cells to short THP (time course) (C2C12-α11β1 cells) | Recognition by α10β1, summary (α10β1) | Adhesion of C2C12-α2β1 cells to short THP (time course) (C2C12-α2β1 cells) | Cell adhesion to short THPs (time course) (C2C12-α10β1 cells) | Adhesion of C2C12-α1β1 cells to short THP (time course) (C2C12-α1β1 cells) | Ligand of collagen-binding integrins, GROGER ([2]; ref [8], [10])
1 | GFOGER [THP containing GFOGER served as positive control, reference compound] | less well | highest affinity ligand |  |  |  |  |  | 
2 | GROGER [short triple-helical peptide containing GROGER] |  |  | bound quite well | only weakly recognised by α10β1; also recorded: compromised in the context of α10β1; also recorded: α10-repellent | bound quite well | poor binding; also recorded: of comparable level to the GPP10 negative control peptide | bound quite well | quite a good ligand
3 | GLOGEN [short THP containing GLOGEN] | bound strongly |  |  | selective ligand in preference to GFOGER; also recorded: high-affinity site |  |  |  | 

Source: publication PMC5380659, “Unique charge-dependent constraint on collagen recognition by integrin α10β1” (Matrix Biology, 2017)
